# Calls of active or inactive are those of the source.
# Experiments:
# [1] = target: Major prion protein (Homo sapiens, UniProt P04156); assay type: functional, cell-based
# [2] = cells
# [3] = HGIII-sPLA2 enzyme inhibition potency – biochemical, QFRET, IC50, dose response (AID 743457);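 note: green fluorescence rise as the enzyme cleaves BODIPY PC-A2 in liposomes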
# [4] = target: T1, COUP transcription factor 2 (Homo sapiens, UniProt P24468); test: Luminescence-based cell-based high throughput dose response assay to identify inhibitors of COUP-TFII (NR2F2).; assay type: functional;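 note: HEK293 cells transiently cotransfected with COUP-TFII expression vector and reporter; luciferase reporter luminescence driven by COUP-TFII from the pX2-168 reporter plasmid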
# T1 sequence (P24468 whole entry): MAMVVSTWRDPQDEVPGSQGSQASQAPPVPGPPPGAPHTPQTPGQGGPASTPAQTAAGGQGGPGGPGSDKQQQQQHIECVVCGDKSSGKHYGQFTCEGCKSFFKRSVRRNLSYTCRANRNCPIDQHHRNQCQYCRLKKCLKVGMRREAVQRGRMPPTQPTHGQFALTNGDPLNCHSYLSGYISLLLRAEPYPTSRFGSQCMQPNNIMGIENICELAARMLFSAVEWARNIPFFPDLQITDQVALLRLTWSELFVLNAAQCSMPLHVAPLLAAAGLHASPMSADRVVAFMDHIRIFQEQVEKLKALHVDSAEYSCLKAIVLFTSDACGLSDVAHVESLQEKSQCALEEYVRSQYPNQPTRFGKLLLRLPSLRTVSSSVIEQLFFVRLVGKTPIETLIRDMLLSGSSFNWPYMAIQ
# [5] = target: Albumin (Bos taurus, UniProt P02769); test: Counterscreen for inhibitors of T-cell receptor (TCR)-CD3 interaction: Fluorescence-based biochemical high throughput dose response assay to identify inhibitors of T-cell receptor (TCR)-CD3 interaction using a TAMRA-labeled BSA probe.; assay type: functional
# [6] = cells; assay type: functional, cell-based
# [7] = target: T2, Trace amine-associated receptor 1 (Homo sapiens, UniProt Q96RJ0); test: Fluorescence-based cell-based high throughput dose response assay to identify agonists of the human trace amine associated receptor 1 (TAAR1).; assay type: functional
# T2 sequence (Q96RJ0 whole entry): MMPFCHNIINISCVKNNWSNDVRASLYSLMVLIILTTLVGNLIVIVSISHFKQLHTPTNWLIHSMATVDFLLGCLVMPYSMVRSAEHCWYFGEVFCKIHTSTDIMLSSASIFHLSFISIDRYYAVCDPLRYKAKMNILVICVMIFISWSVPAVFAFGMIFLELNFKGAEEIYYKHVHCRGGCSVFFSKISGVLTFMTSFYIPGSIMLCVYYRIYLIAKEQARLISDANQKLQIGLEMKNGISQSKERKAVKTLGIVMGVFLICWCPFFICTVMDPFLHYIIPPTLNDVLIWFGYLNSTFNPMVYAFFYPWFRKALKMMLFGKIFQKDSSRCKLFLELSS
# [8] = target: T2, Trace amine-associated receptor 1; test: Counterscreen for agonists of the human trace amine associated receptor 1 (hTAAR1): Fluorescence-based cell-based high throughput dose response assay to identify hTAAR1 agonist that also desensitize TAAR1 receptor response.; assay type: functional
# [9] = cells; assay type: functional, cell-based; remark: listed apart in the source
# [10] = toxicity toward HepG2 liver cells – cell-based, plate reader, cherry-pick, antagonist series, cytotoxicity control, dose response (AID 743416); assay type: functional
# [11] = blockade of melanocortin 4 receptor signaling – cell-based, plate reader, cherry pick, counter-screen for LGR2 antagonist project, dose response (AID 743444); assay type: functional;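 note: transfected HEK 293 cells stimulated with alpha-MSH peptide; potency of inhibitors of the alpha-MSH evoked signal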
# [12] = viability loss in HEK293 cells – cell-based, plate reader, cherry-picked samples, cytotoxicity control, dose response (AID 743446); assay type: functional
# [13] = target: T3, Mannose-6-phosphate isomerase (Homo sapiens, UniProt P34949); test: MPI inhibition at elevated mannose 6-phosphate – biochemical, fluorescence intensity, high mannose 6-phosphate, primary screen (AID 1220)
# T3 sequence (P34949 whole entry): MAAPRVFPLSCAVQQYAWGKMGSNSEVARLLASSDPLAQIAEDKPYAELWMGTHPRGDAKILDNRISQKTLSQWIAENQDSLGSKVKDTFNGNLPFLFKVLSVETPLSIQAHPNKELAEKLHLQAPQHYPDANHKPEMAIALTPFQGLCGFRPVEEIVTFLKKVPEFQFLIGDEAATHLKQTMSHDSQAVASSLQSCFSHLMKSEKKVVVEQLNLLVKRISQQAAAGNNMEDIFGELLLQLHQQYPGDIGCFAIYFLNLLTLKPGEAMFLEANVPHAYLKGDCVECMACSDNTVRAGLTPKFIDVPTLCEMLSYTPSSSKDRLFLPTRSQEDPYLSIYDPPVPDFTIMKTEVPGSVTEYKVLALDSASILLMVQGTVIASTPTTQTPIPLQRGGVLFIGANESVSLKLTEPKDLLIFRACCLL
# [14] = rise of 2N DNA cells, HeLa – IC50, dose response (AID 1117349); assay type: functional, cell-based
# [15] = rise of 4N DNA cells, HeLa – IC50, dose response (AID 1117351); assay type: functional, cell-based
# [16] = blockers of HIV-1 envelope-mediated cell-cell fusion – cherry-pick, dose response (AID 652057); assay type: functional, cell-based
# [17] = viability loss in CEM21 cells – cell-based, CellTiter-Glo luminescence, cherry-picked, cytotoxicity control for viral fusion inhibitor project, dose response (AID 652042); assay type: functional;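 note: potency for signal decrease meaning cytotoxicity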
# [18] = blockers of HIV-1 ZM109 envelope-driven cell-cell fusion – HeLa effector, CEM target cells, luciferase, cherry-pick, dose response (AID 652058); assay type: functional, cell-based;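 note: luciferase signal from HIV-1 Env mediated cell-cell fusion of effector and target cells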
# [19] = HIV-1 AD8 envelope cell-cell fusion blockers – cherry-pick, dose response (AID 652062); assay type: functional, cell-based;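 note: luciferase signal from cell-cell fusion driven by HIV-1 clade B AD8 Env; potency is for inhibitors of fusion seen as a drop in luminescence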
# [20] = A549 cell cytotoxicity, dose response, cytotoxicity control, plate reader, cherry-pick, antagonist series (AID 743412); assay type: functional, cell-based
# [21] = blockers of bursicon-stimulated LGR2 cAMP reporter – cell-based, HEK293, CRE-luciferase reporter, cherry pick, set 2, dose response (AID 743343); assay type: functional;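 note: transfected cells were stimulated with diluted bursicon conditioned medium after compound addition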
# [22] = target: Voltage-dependent T-type calcium channel subunit alpha-1H (Homo sapiens, UniProt O95180); assay type: functional;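 note: channel activity triggered by adding a high calcium stimulation buffer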
# [23] = off-target signal loss in HeLa-CEM21 co-culture – HeLa F-luc CTL cells, cherry-picked, counter-screen for HIV-1 Env fusion inhibitor project, dose response (AID 652040); assay type: functional, cell-based;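 note: potency for signal decrease marking cytotoxic or nonspecific inhibition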
# [24] = target: Prothrombin (Homo sapiens, UniProt P00734); test: Thrombin 1536 HTS Dose Response Confirmation. [Related pubchem assays: 1046 (Thrombin 1536 HTS; hits were confirmed in this assay)]; assay type: functional
# [25] = system: HEK293; test: inhibition of NOD1-driven NF-kB reporter – cell-based, luminescence, uHTS, primary screen (AID 1578); assay type: functional; settings: Homo sapiens
# [26] = system: HEK293; test: cells; assay type: functional, cell-based; settings: Homo sapiens
# [27] = system: HEK293; test: cells; assay type: functional, cell-based; settings: Homo sapiens; remark: listed apart in the source
# [28] = system: HEK293; test: NOD2 signaling inhibitors in MDP-stimulated cells, cell-based, uHTS, luminescence (AID 2001); assay type: functional; settings: Homo sapiens
# [29] = target: Tumor necrosis factor (Homo sapiens, UniProt P01375); test: analog potency on TNFa NF-kB signaling – cell-based, revised, SAR follow-up (AID 2337); assay type: functional
# [30] = target: T4, Nucleotide-binding oligomerization domain-containing protein 1 (Homo sapiens, UniProt Q9Y239); test: blockers of NOD1 pathway activity – revised, SAR follow-up (AID 2333); assay type: functional
# T4 sequence (Q9Y239 whole entry): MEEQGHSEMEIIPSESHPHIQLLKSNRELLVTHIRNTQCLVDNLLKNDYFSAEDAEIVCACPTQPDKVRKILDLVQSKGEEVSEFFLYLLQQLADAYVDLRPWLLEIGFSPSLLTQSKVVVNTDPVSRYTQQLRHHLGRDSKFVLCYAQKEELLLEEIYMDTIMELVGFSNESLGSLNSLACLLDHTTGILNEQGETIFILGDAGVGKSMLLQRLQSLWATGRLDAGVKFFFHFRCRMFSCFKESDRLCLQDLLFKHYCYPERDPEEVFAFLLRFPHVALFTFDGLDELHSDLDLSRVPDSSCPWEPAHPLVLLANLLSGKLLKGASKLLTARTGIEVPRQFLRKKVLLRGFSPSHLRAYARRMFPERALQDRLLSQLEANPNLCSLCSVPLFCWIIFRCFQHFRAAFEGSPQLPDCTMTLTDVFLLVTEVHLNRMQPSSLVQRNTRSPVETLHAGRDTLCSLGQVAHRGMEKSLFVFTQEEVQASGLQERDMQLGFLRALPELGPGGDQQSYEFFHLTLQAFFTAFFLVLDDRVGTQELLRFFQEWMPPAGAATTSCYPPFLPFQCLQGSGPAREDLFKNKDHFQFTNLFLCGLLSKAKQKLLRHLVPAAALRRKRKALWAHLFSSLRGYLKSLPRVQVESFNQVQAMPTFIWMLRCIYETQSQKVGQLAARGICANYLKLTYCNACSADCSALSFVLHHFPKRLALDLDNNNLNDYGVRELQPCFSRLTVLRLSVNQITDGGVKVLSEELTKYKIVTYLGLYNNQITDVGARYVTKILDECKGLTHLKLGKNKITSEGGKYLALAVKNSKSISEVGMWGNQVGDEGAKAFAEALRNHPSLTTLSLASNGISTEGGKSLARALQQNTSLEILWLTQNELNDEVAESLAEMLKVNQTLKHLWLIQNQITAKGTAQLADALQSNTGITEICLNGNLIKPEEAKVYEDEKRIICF
# [31] = system: INS1; test: INS-1E survival protection against cytokine death – cell-based, luminescence, retest, dose response (AID 449756); assay type: functional; settings: Rattus norvegicus;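 note: cell death triggered by IL-1 beta plus TNF-alpha plus IFN-gamma mixture; protective hits raise ATP signal compared with cytokine alone wells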
# [32] = reduction of Shn3 3'UTR-driven luciferase in osteoblasts – cell-based, Clone20 osteoblasts, firefly luciferase, cherry-picked, dose response (AID 624132); assay type: functional;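 note: firefly luciferase luminescence from reporter carrying the Shn3 3'UTR in osteoblasts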
# [33] = non-specific 3'UTR reporter inhibition in Clone20-Shn3RL – cell-based, Renilla luciferase, cherry-picked, counter-screen for Shn3 inhibitor project, dose response (AID 624133); assay type: functional
# [34] = system: HEK293; test: cells; settings: Homo sapiens
# [35] = reduced cellular PGC1a acetyl-lysine signal – cell-based, cherry-picked samples, dose response (AID 720514); assay type: functional;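 note: potency may reflect raised or lowered acetylation signal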
compound,measurement,setting,value
O=C(O)c1ccccc1SCc1csc(-c2ccccc2)n1,IC50,[1],6.49 µM (active)
same,IC50,[2],> 138 µM (inactive)
O=C(CNc1cccc(Cl)c1)NNC(=S)NCc1ccccc1,IC50,[3],> 122 µM (inactive)
Clc1ccc(-n2ncc3c(NCCN4CCOCC4)ncnc32)cc1,IC50,[4],35.7 µM (inactive)
O=C(NNC(=O)c1c(O)c2ccccc2[nH]c1=O)c1ccccc1,IC50,[5],> 94.1 µM (inactive)
COc1ccccc1CCn1cnc(-c2ccccc2OC)c1C(C)C,IC50,[6],11.8 µM (inactive)
same,EC50,[7],5.14 µM (active)
same,IC50,[8],3.82 µM (active)
same,EC50,[9],> 29.9 µM (inactive)
same,AC50,[10],29.8 µM (active)
same,AC50,[11],29.4 µM (active)
same,AC50,[12],> 52 µM (inactive)
Cc1cccc(NCc2ccc(O)c3ncccc23)c1,IC50,[13],> 50 µM (not active)
COc1ccc(Cl)cc1C(=O)NN=C(S)NC1CCCC1,IC50,[3],> 122 µM (inactive)
CCCCCCCCCCCCCCCCNc1ccc(C(=O)O)cc1 [CETABEN],IC50,[14],> 10 µM (inactive)
same,IC50,[15],> 10 µM (inactive)
Cc1ccc(S(=O)(=O)Nc2ccc3c(c2)C(=O)N([C@H](C)CO)C[C@@H](C)[C@@H](CN(C)Cc2ccc(-c4ccccc4)cc2)O3)cc1,AC50,[16],18 µM (active)
same,AC50,[17],21.8 µM (active)
same,AC50,[18],16.6 µM (active)
same,AC50,[19],17.4 µM (active)
O=C(Nc1ccc(N2CCN(C(=O)c3ccccc3)CC2)c(Cl)c1)c1ccc(Br)o1,AC50,[20],34.9 µM (active)
same,AC50,[10],35 µM (active)
same,AC50,[21],16.6 µM (active)
same,AC50,[11],14.9 µM (active)
same,AC50,[12],21.5 µM (active)
Clc1ccc(C(c2nnnn2CCc2ccccc2)N2CCSCC2)cc1 (configuration not stated),EC50,[22],8.87 µM (active)
same,AC50,[16],2 µM (active)
same,AC50,[17],62.2 µM (active)
same,AC50,[18],7.63 µM (active)
same,AC50,[23],4.45 µM (active)
same,AC50,[19],1.14 µM (active)
COc1cccc(-c2nnc(SCC(=O)Nc3ccc4c(c3)OCCO4)n2Cc2ccco2)c1,IC50,[24],> 50 µM (not active)
CCOc1ccc([N+](=O)[O-])cc1CNCCc1ccccc1,IC50,[6],> 29.9 µM (inactive)
same,EC50,[7],0.337 µM (active)
same,IC50,[8],4.18 µM (active)
same,EC50,[9],> 29.9 µM (inactive)
Cc1cc(C(=O)NC2CCCc3c2cnn3-c2cccc(C)c2C)n(C)n1 (configuration not stated),EC50,[25],0.17 µM (active)
same,IC50,[26],0.922 µM (active)
same,IC50,[27],> 20 µM (inactive)
same,IC50,[28],0.609 µM (inactive)
same,IC50,[29],0.703 µM (active)
same,IC50,[30],0.289 µM (active)
same,AC50,[31],0.216 µM (active)
same,AC50,[32],< 0.26 µM (active)
same,AC50,[33],< 0.26 µM (active)
same,IC50,[4],0.628 µM (active)
same,IC50,[34],> 20 µM (inactive)
CC(=O)c1sc2ccccc2c1OC(=O)c1ccco1,IC50,[24],2.17 µM (active)
O=C(COc1ccc(S(=O)(=O)Nc2ccccc2)cc1)N1CCOCC1,IC50,[24],> 50 µM (not active)
CC(=O)N[C@@H](C)c1nc2ccccc2n1CCCN1CCN(c2nc(-c3ccc(C)cc3)cs2)CC1,IC50,[4],6.84 µM (active)
N#C[C@H]1[C@@H](c2ccc(-c3ccccc3)cc2)[C@@H](CO)N1S(=O)(=O)Cc1ccccc1,AC50,[16],1.93 µM (active)
same,AC50,[17],41.5 µM (active)
same,AC50,[19],4.94 µM (active)
N#Cc1cccc(-c2ccc([C@@H]3[C@@H]4CN(Cc5ccccc5F)C[C@H]3N4)cc2)c1,AC50,[35],8.09 µM (active)
COc1cccc(-n2c(Cc3cc(O)nc(O)n3)nnc2SCc2cccc(C(F)(F)F)c2)c1,AC50,[35],35.1 µM (active)
CCOc1ccc(C(=O)C2=C(O)C(=O)N(c3ccccn3)C2c2ccccc2F)c(C)c1 (configuration not stated),IC50,[1],5.58 µM (active)
same,IC50,[2],> 138 µM (inactive)

# — ChEMBL document CHEMBL1201862, “PubChem BioAssay data set” (2004)
